Experimental data taken from publication PMC10865409, “The prFMNH2-binding chaperone LpdD assists UbiD decarboxylase activation” (The Journal of Biological Chemistry, 2024).

Experiments:
[1] = biological target: T1, UbiD (Strep-tagged apo-UbiD) (Escherichia coli, UniProt P0AAB4); experiment: decarboxylation by HPLC; Strep-UbiD plus LpdD-containing lysate; type: biochemical; settings: anaerobic; LpdD lysate supernatant with or without prFMNH2; purified UbiD alone inactive
T1 construct: Strep-tagged, purified apo-UbiD reconstituted with LpdD-containing E. coli lysate and prFMNH2; 4-hydroxybenzoate row is endogenous UbiD of E. coli BL21(DE3)
T1 sequence (P0AAB4 1-497): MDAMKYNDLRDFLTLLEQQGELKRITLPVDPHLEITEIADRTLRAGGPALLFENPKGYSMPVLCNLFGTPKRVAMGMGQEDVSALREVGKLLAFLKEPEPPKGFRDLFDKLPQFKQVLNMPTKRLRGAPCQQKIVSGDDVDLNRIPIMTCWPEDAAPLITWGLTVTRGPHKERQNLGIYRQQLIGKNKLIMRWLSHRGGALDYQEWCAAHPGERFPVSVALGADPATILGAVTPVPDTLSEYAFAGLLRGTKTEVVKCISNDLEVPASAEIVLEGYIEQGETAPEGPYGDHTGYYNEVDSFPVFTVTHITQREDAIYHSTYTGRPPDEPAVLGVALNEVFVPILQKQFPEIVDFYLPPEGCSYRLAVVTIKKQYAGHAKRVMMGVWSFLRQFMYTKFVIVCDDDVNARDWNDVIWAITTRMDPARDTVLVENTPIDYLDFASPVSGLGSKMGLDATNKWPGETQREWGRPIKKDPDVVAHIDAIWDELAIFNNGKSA

[2] = biological target: T1, UbiD (Strep-tagged apo-UbiD); experiment: ESI-MS of reconstituted Strep-UbiD; type: binding; settings: reconstituted with LpdD-containing cell lysate and prFMNH2
[3] = biological target: T2, LpdD (Lactiplantibacillus plantarum, UniProt F9UT68, H61A); experiment: UV-Vis after in vitro reconstitution and desalting; type: binding; settings: anaerobic, 2:1 prFMNH2:protein, 50 mM Tris pH 7.5, 200 mM NaCl, 1 mM MnCl2
T2 construct: full length, N-terminal hexahistidine tag (best crystals; C-terminal also made), E. coli codon-optimized gene, E. coli BL21(DE3), Ni-NTA; dimer
T2 sequence (F9UT68 whole entry H61A): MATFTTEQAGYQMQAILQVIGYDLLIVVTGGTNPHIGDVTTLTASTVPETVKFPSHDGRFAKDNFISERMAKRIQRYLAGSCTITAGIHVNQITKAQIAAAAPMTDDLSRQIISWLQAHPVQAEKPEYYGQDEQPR

[4] = biological target: T3, LpdD (Lactiplantibacillus plantarum, UniProt F9UT68); experiment: UV-Vis after in vitro reconstitution and desalting; type: binding; settings: anaerobic, 2:1 prFMNH2:protein, 50 mM Tris pH 7.5, 200 mM NaCl, with or without MnCl2
T3 construct: full length, N-terminal hexahistidine tag (best crystals; C-terminal also made), E. coli codon-optimized gene, E. coli BL21(DE3), Ni-NTA; dimer
T3 sequence (F9UT68 1-136): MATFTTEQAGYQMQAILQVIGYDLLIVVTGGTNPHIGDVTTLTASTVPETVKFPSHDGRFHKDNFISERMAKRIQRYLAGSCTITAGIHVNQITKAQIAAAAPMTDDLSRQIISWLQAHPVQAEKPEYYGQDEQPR

[5] = biological target: T4, Strep-tagged Escherichia coli UbiD (Escherichia coli, UniProt P0AAB4 1-497); experiment: pull-down; Strep-tagged UbiD and His-tagged LpdD mixed in an equimolar ratio, pulled down with streptavidin beads under anaerobic conditions; SDS-PAGE and His-Western blot; settings: both partners purified
T4 construct: UbiD, prFMN-dependent decarboxylase of ubiquinone biosynthesis, Escherichia coli; also called Strep-UbiD; Strep-apo-UbiD; source: purified
T4 sequence (looked up): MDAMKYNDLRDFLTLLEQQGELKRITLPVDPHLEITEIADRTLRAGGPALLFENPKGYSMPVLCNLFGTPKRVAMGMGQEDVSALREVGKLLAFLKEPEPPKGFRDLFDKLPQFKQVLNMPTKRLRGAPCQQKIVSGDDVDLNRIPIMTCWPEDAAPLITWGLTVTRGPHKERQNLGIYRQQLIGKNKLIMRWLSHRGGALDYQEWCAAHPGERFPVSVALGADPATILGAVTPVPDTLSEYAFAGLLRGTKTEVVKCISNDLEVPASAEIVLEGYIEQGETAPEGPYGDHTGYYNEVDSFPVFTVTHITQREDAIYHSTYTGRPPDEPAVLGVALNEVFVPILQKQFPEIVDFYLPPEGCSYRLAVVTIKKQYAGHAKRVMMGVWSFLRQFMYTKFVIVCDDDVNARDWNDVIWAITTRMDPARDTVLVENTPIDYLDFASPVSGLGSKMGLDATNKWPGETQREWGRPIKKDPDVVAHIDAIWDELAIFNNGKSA

[6] = biological target: the molecule itself; experiment: crystal structure; N-terminally His-tagged LpdD, ca 15 mg/ml, 1.6 M magnesium sulfate heptahydrate, 0.1 M Mes pH 6.5, 20 °C; space group I222, two monomers in the asymmetric unit; dimer built by crystallographic symmetry
[7] = biological target: the molecule itself; experiment: crystal structure; LpdD H35A, space group P4_(1)2_(1)2, one molecule in the asymmetric unit, distinct crystallization conditions; dimer built by crystallographic symmetry

O=C(O)c1ccc(O)c(O)c1 [compound 2, 3,4-dihydroxy-benzoic acid]
decarboxylation by HPLC; Strep-UbiD plus LpdD-containing lysate [1]: activity was observed when LpdD-containing cell lysate supernatant was included in the assays

Cc1cc2c3c(c1C)C(C)(C)CC=[N+]3c1c(nc([O-])[nH]c1=O)N2C[C@H](O)[C@H](O)[C@H](O)COP(=O)(O)O [prFMN^iminium]
ESI-MS of reconstituted Strep-UbiD [2]: reconstituted Strep-UbiD reveals the presence of catalytically relevant prFMN^iminium species

Cc1cc2c3c(c1C)C(C)(C)CCN3c1c([nH]c(=O)[nH]c1=O)N2C[C@H](O)[C@H](O)[C@H](O)COP(=O)(O)O [prFMNH2]
UV-Vis after in vitro reconstitution and desalting [3]: purified H61A variant reveals this mutation does not abolish prFMNH2 binding | UV-Vis after in vitro reconstitution and desalting [4]: In vitro reconstitution of purified apo-LpdD with prFMNH2 results in similar spectral features

B1: LpdD (lp_0272) from Lactobacillus plantarum, His-tagged (natural protein)
chain: MATFTTEQAGYQMQAILQVIGYDLLIVVTGGTNPHIGDVTTLTASTVPETVKFPSHDGRFHKDNFISERMAKRIQRYLAGSCTITAGIHVNQITKAQIAAAAPMTDDLSRQIISWLQAHPVQAEKPEYYGQDEQPR
notes: LpdD, small protein associated with the UbiD-type gallate decarboxylase LpdC, Lactobacillus plantarum, locus lp_0272; E. coli codon-optimized synthetic gene; N- and C-terminally His-tagged LpdD were both made (pET28a and pET30a); the best crystals came from the N-terminally tagged protein; The pull-down says only 'His-tagged LpdD'; The tag is detected by His-Western blot in the pull-down; also …
binding result [5]: binds | stoichiometry N [6]: 2

B2: LpdD H35A variant (natural protein, Lactobacillus plantarum)
chain: MATFTTEQAGYQMQAILQVIGYDLLIVVTGGTNPAIGDVTTLTASTVPETVKFPSHDGRFHKDNFISERMAKRIQRYLAGSCTITAGIHVNQITKAQIAAAAPMTDDLSRQIISWLQAHPVQAEKPEYYGQDEQPR
notes: LpdD, Lactobacillus plantarum, locus lp_0272, with H35A made by site-directed mutagenesis of the WT construct; source: E. coli BL21(DE3), purified
stoichiometry N [7]: 2
